Laboratory results from US20250281610A1, “P2RY2 ACTIVITY MODULATORS” (Deutsches Krebsforschungszentrum Stiftung des öffentlichen …, priority 2022, published 2025).

Assays:
[1] = system: SW480 cells; experiment: Viability of SW480 cells in co-culture with CEA-specific CAR-T cells (CellTiter-Blue); type: cell-based, human; settings: 10 μM AR-C, 48 hours (FIG. 20)
Protocol: FIG. 20. Effects of P2RY2 agonist and P2RY2 antagonist on cancer cell viability in T cell-cancer cell co-cultures. T cells transduced with a CEA-specific CAR (CAR-T) were co-cultured with genetically edited SW480 cells for 48 hours in the absence or presence of 40 μM ATP, 20 μM ATPγS, 10 μM Diquafosol, 5 μM Denufosol and 10 μM AR-C 118925XX (AR-C). Control cells: SW480 cells transduced with non-targeting sgRNA and Cas9 (gNT); P2RY2 deficient cells: SW480 cells transduced with P2RY2-targeting sgRNA and Cas9 (gP2RY2-3, gP2RY2-4); B7-H3 (CD276) deficient cells: SW480 cells transduced with B7-H3-targeting sgRNA and Cas9 (gCD276-1); P2RY2 and B7-H3 double deficient cells: SW480 cells transduced with P2RY2-targeting sgRNA, B7-H3-targeting sgRNA, and Cas9 (gCD276-1 gP2RY2-3 DKO, gCD276-1 gP2RY2-4 DKO); P2RY2 overexpression cells: SW480 cells transduced with the open reading frame of P2RY2 (P2RY2-OE); B7-H3 overexpression cells: SW480 cells transduced with the open reading frame of CD276 (CD276-OE). […] Normalized cell viability of the SW480 cells was determined by the CellTiter-Blue® Cell Viability (Promega) assay after co-culture with CEA CAR-T cells. The end-point cell viability was normalized to SW480 cells, as measured using the CellTiter-Blue® Cell Viability (Promega) assay, in cultures without T cells. […]

[2] = system: CEA-specific CAR transduced T cells co-cultured with SW480 cells; experiment: T cell activation in co-culture of CEA-specific CAR-T cells with SW480 cells; type: cell-based, human; settings: 10 μM AR-C, 24 hours, CD3+CD8+ or CD3+CD4+ population (FIG. 19)
Protocol: FIG. 19. Effects of P2RY2 agonist and P2RY2 antagonist on T cell activity in T cell-cancer cell co-cultures. T cells transduced with a CEA-specific CAR (CAR-T) were co-cultured with genetically edited SW480 cells for 24 hours in the absence or presence of 40 μM ATP, 200 μM ATPγS, 10 μM Diquafosol, 5 μM Denufosol and 10 μM AR-C 118925XX (AR-C). Control cells: SW480 cells transduced with non-targeting sgRNA and Cas9 (gNT); P2RY2 deficient cells: SW480 cells transduced with P2RY2-targeting sgRNA and Cas9 (gP2RY2-3, gP2RY2-4); B7-H3 (CD276) deficient cells: SW480 cells transduced with B7-H3-targeting sgRNA and Cas9 (gCD276-1); P2RY2 and B7-H3 double deficient cells: SW480 cells transduced with P2RY2-targeting sgRNA, B7-H3-targeting sgRNA, and Cas9 (gCD276-1 gP2RY2-3 DKO, gCD276-1 gP2RY2-4 DKO); P2RY2 overexpression cells: SW480 cells transduced with the open reading frame of P2RY2 (P2RY2-OE); B7-H3 overexpression cells: SW480 cells transduced with the open reading frame of CD276 (CD276-OE). Transduced cancer cells were selected by antibiotics according to antibiotic resistance genes carried by the lentiviral constructs. Flow cytometry analysis of expression of CD25 and CD69 and production of IFNγ within the CD3+CD8+ or CD3+CD4+ cell population is shown (values indicate the percentages of positive cells).
MART-1 specific T cells were generated as described (Mezzadra et al., Nature 549, 106-110 (2017); Jorritsma et al., Blood 110 (10): 3564-3572. (2007)). To generate CD33-specific chimeric antigen receptor (CAR) T cells and CEA-specific CAR-T cells, a CD33Hul95-CD28Z CAR (described in WO 2019/178382) cassette and MFE-23 (described in US20050147614A1)-CD28Z CAR were separately cloned into retroviral vectors, and the resulting virus was used to transduce T cells as described (Mezzadra et al., Nature 549, 106-110 (2017); Jorritsma et al., Blood 110 (10): 3564-3572. (2007)).
The open reading frames of transcripts of P2RY2 (ENST00000393597.7) or CD276 (ENST00000318443.10), were ordered as a codon optimized gBlock Gene Fragment (Integrated DNA Technologies or Twist Bioscience) and cloned into a lentiviral vector containing a blasticidin selection cassette. Constructs were verified by Sanger sequencing.
MART1-specific CD8+ T cells and MART1 epitope-expressing cancer cells were mixed at a ratio of 1:16 to 1:1. CD33 CAR-T cells and CD33 expressing THP-1 cells were mixed at a ratio of 1:16 to 1:4. CEA CAR-T cells and CEA expressing SW480 cells were mixed at a ratio of 1:1. Next, cells were centrifugated at 1,600 g for 3 min and incubated at 37° C. and 5% CO2 for 12-72 hours. T cell activation was assessed by surface staining with anti-CD137-BV421 (4-1BB, Biolegend), anti-CD137-PE/Cy7 (4-1BB, Biolegend), anti-CD69-APC/Fire™ 750 (FN50, Biolegend), anti-CD25-AF700 (BC96, Biolegend), anti-CD25-APC (BC96, Biolegend) antibodies and intracellular staining with anti-IL-2-PE/Cy7 (MQ1-17H12, Biolegend), anti-IFN-7-BV421 (4S.B3, Biolegend), anti-TNF-α-BV785 (MAb11, Biolegend), anti-TNF-α-APC (MAb11, Biolegend) antibodies, followed by flow cytometry analysis. For intracellular staining, brefeldin A (Biolegend) was added to the cell culture medium 4 h before cells were harvested. The viability of cancer cells that grow in suspension including THP-1 cells was assessed by flow cytometry-based absolute cell counting using AccuCount beads (Spherotech). For adherent cancer cells including BxPC3, MIA PaCa-2, MDA-MB-231 and MCF7, the cell viability was quantified using CellTiter-Blue Cell Viability Assay (Promega).

Cc1ccc2c(c1)C=Cc1cc(C)ccc1C2c1cn(Cc2ccc(C(=O)Nc3nn[nH]n3)o2)c(=O)[nH]c1=S [AR-C 118925XX]
tumor cell viability [1]: reduced | expression of T cell activation marker CD25 [2]: increased | expression of T cell activation marker CD69 [2]: increased | expression of T cell activation marker IFN-7 [2]: increased
